# Test results: publication doi:10.1101/2024.12.09.627564, “Cannabinoid inhibition of mechanosensitive K^+ channels” (bioRxiv, 2024)
# Columns and labels:
# GPR55 = test system: GPR55; set-up: method as in PMID 17876302, PMID 29669714, PMID 36787750; conditions: negative modulation of GPR55; cited from earlier work
# hsTRAAK = target: T1, hsTRAAK (Homo sapiens, UniProt Q9NYG8); experiment: Whole-cell recordings of TRAAK in cultured HEK293T cells, extracellular CBD; format: cell-based; conditions: 1 and 10 μM CBD, 0 mV
# T1 construct: expressed in transfected cells; host or cells: HEK293T
# T1 sequence (Q9NYG8 1-393): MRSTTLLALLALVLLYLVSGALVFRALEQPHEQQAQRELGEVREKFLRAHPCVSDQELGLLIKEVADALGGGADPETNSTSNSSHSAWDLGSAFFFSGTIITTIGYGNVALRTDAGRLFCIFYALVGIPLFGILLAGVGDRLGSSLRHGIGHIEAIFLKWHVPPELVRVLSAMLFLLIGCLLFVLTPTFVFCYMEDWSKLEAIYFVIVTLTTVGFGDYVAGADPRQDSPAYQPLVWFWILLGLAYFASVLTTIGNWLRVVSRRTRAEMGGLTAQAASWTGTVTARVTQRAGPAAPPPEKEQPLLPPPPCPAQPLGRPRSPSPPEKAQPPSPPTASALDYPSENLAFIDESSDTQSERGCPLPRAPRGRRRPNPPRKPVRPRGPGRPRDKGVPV
# Method: For patch clamp recording from cultured cells, drTREK-1 or hsTRAAK genes were cloned into a modified pCEH vector to generate C-terminally EGFP-tagged constructs. HEK293T were cultured in DMEM (Gibco, Thermo Fisher Scientific) with 10% FBS and 100 U ml−1 penicillin and 100 μg ml−1 streptomycin. Trypsinized cells were deposited on 12-mm glass coverslips in a six-well dish one to two days before transfection. For transfection, drTREK-1 or hsTRAAK plasmids were mixed with FuGENE 6 in OptiMEM at a 1:3 ratio with 1 μg DNA per well per construct and applied to cells in growth medium with antibiotics. Patching was conducted from 24 to 60 h post-transfection. Coverslips were placed in a perfusion chamber at room temperature in isotonic bath solution: 135 mM NaCl, 15 mM KCl, 1 mM CaCl2, 1 mM MgCl2, 10 mM HEPES, adjusted to a final pH of 7.5 with NaOH. Cells were chosen by a combination of the presence GFP fluorescence and cell morphology consistent with healthy interphase cells. […]
# Patches were evaluated with voltage-step protocols to confirm TRAAK expression and minimal non-specific leak based on reversal potential. Currents were recorded using an Axopatch 200B amplifier (Molecular Devices) at a bandwidth of 1 kHz and digitized with an Digidata 1550B (Molecular Devices) at 100–500 kHz using pClamp10.7 software. […] Data were analyzed using Clampfit 10.7, Excel, and Graphpad Prism software. […]
smiles,measurement,setting,value
"C=C(C)[C@@H]1CCC(C)=C[C@H]1c1c(O)cc(CCCCC)cc1O [CBD, Cannabidiol]",IC50,GPR55,~0.5 µM
same,inhibition of TRAAK by extracellular CBD,hsTRAAK,strongly inhibited
